Test results published in paper PMC4977651, “Molecular features of biguanides required for targeting of mitochondrial respiratory complex I and activation of AMP-kinase” (BMC Biology, 2016).
Several values for one entry are separate records, joined by “and”; a condition that tells them apart may be missing. Equal values may be shown once. Read-outs that look alike come from different tables or passages of the source.

What was measured:
[1] = tested on: bovine mitochondrial membranes (complexes II-III-IV); experiment: Succinate:O2 oxidoreduction (complexes II-III-IV, complex II assay) by bovine mitochondrial membranes; assay type: biochemical, Bos taurus; details: biguanide concentrations set to the IC50 values for NADH:O2 on bovine membranes; control = 100.00; n = 3
Experimental: (§1) Assays were performed at 32 °C in a SpectraMax 96-well plate reader. NADH:decylubiquinone oxidoreduction by complex I at 0.5 μg mL^−1 was measured in 20 mM Tris-HCl (pH 7.2), 0.15 % soy bean asolectin (Avanti Polar Lipids), and 0.15 % 3-((3-cholamidopropyl)dimethylammonium)-1-propanesulfonate (CHAPS, Merck Chemicals Ltd), with 200 μM decylubiquinone and 200 μM NADH, and monitored using ε340–380(NADH) = 4.81 mM^−1 cm^−1 [23]. Catalysis was initiated by addition of NADH and maximal rates determined by linear regression. NADH:O2 oxidoreduction by membranes was measured similarly but using 5 μg mL^−1 membranes in 10 mM Tris-HCl (pH 7.4) and 250 mM sucrose using 200 μM NADH and supplemented with 0.15 mM horse heart cytochrome c (Sigma-Aldrich Ltd.). Succinate:O2 oxidoreduction was measured using 40 μg mL^−1 membranes in 5 mM succinate in 10 mM Tris-HCl (pH 7.4) as described previously. Control experiments included NaCl (to match the ionic strength) or DMSO, as appropriate.

rat liver mitochondria = experiment: ADP-stimulated rotenone-sensitive OCR in isolated rat liver mitochondria; assay type: biochemical; design: rotenone sensitive OCR after ADP stimulation, individual replicates / rotenone sensitive OCR after ADP stimulation, average: unit not given here; details: for rotenone sensitive OCR after ADP stimulation, % of control, average / rotenone sensitive OCR after ADP stimulation, average: average of replicates; for rotenone sensitive OCR after ADP stimulation, % of control, individual replicates / rotenone sensitive OCR after ADP stimulation, individual replicates: replicate 1-5
Experimental: (§2) Complex I and mitochondrial membranes were prepared from Bos taurus (bovine) heart. Intact mitochondria were isolated from rat liver and mouse heart and liver. Membranes were prepared from mouse heart mitochondria by 5 s bursts of sonication at 4 °C and collected by centrifugation (75,000 × g, 1 h).
Isolated mitochondria were monitored using a Seahorse XF96 extracellular flux analyzer at 32 °C. Mouse heart mitochondria, and mouse and rat liver mitochondria were plated into XF96 plates at 4 and 16–20 μg per well, respectively, in 220 mM mannitol, 70 mM sucrose, 10 mM KH2PO4, 5 mM MgCl2, 1 mM EGTA, 0.2 % fatty acid-free BSA, and 2 mM HEPES (pH 7.4 at 37 °C) with 10 mM glutamate and 10 mM malate and adhered by centrifugation (2000 × g, 20 min, 4 °C). The medium was supplemented with a further 5 mM glutamate and 5 mM malate and the mitochondria incubated for 15 min. Then two baseline readings were taken before the biguanides were added at IC50/5. Biguanides were allowed to accumulate for 15–20 min before respiration was […] by the addition of 4 mM ADP. Rotenone (2 μM) was added at the end of the experiment. Data from wells with failed port injections were excluded from the analyses. The RCR values (state III versus state IV respiration) were 3.4, 4.8, and 4.6 for mouse heart, rat liver, and mouse liver, respectively.

143B cells = experiment: Rotenone-sensitive oxygen consumption rate in intact 143B cells; assay type: cell-based, human; details: for rotenone sensitive OCR after 6 hours of biguanide exposure, % control, average / rotenone sensitive OCR after 6 hours of biguanide exposure, average: 143B cells, biguanide at IC50/10; for rotenone sensitive OCR after 6 hours of biguanide exposure, average: OCR normalized to OCR immediately prior to biguanide addition; for inhibition of rotenone-sensitive respiration (in words): intact 143B cells, biguanide at IC50/10, monitored for 6 h
Experimental: (§3) 143B (CRL-8303 from ATCC), HepG2 (85011430 from The Health Protection Agency), and MDBK (CCL-22 from ATCC) cells were grown on Dulbecco’s modified Eagle’s medium (DMEM) supplemented with 10 % fetal bovine serum (FBS, Thermo Fisher Scientific) at 37 °C in 5 % CO2. All cells were confirmed as negative for mycoplasma.
(§4) Oxygen consumption rates (OCRs) were measured using a Seahorse XF96 extracellular flux analyzer at 37 °C. For intact cell measurements, 1.4 × 10^4 143B, HepG2, or MDBK cells were plated (per well) in DMEM containing 10 % FBS into Seahorse Bioscience Inc. XF96 plates and incubated for ~12 h at 37 °C in 5 % CO2. Then, the medium was exchanged for assay buffer containing DMEM, 4.5 g L^−1 glucose, 1 mM pyruvate, 32 mM NaCl, 2 mM GlutaMAX, 15 mg L^−1 phenol red, and 20 mM HEPES (pH 7.4 at 37 °C) and the cells placed in a CO2-free incubator at 37 °C for 30 min. Basal oxygen consumption rates were established before the addition of biguanides at one-tenth of their IC50 (IC50/10), and followed for ~ 6 h before the addition of rotenone (2 μM).
(§5) Rotenone-sensitive OCRs were calculated by subtracting the rotenone-insensitive rates (determined at the end of the experiment). OCRs were normalized by dividing by the OCR recorded immediately prior to the addition of biguanide. For rate of uptake calculations, the OCRs at time points after biguanide addition were divided by the OCRs at the same time points in control experiments. Data from wells with failed port injections were excluded from the analyses. The respiratory control ratio (RCR) values (state III versus state IV respiration) were ~11 and ~6 for permeabilized MDBK and 143B cells, respectively.

HepG2 cells = experiment: Rotenone-sensitive oxygen consumption rate in intact HepG2 cells; assay type: cell-based, human; details: for rotenone sensitive OCR after 6 hours of biguanide exposure, % control, average / rotenone sensitive OCR after 6 hours of biguanide exposure, average: HEPG2 cells, biguanide at IC50/10; for rotenone sensitive OCR after 6 hours of biguanide exposure, average: OCR normalized to OCR immediately prior to biguanide addition; for inhibition of rotenone-sensitive respiration (in words): intact HepG2 cells, biguanide at IC50/10, monitored for 6 h
Experimental: as §3, §4, §5

[2] = biological target: bovine heart mitochondrial membranes (complex I) (Bos taurus, UniProt P03887+P03898+P17694+P42026); experiment: NADH:O2 oxidoreduction by bovine heart mitochondrial membranes (complexes I-III-IV); assay type: biochemical
Experimental: as §2, §1
Experimental values are reported as mean averages ± standard deviation (SD) of technical replicates for large sample sizes and mean averages ± standard error of the mean (SEM) of technical replicates for small sample sizes. Data were analyzed by the unpaired two-tailed Student’s t test. IC50 values were determined using the standard dose-effect relationship (activity (%) = 100 × IC50 / (IC50 + [inhibitor]^m) with the Hill Slope (m) set to unity for purified complex I) and are reported with 95 % confidence intervals.

[3] = bovine heart mitochondrial membranes; inhibitor 0.05 mM; read-out: average % (rate, % of no-inhibitor control)
[4] = bovine heart mitochondrial membranes; inhibitor 0.12 mM; read-out: average % (rate, % of no-inhibitor control)
[5] = bovine heart mitochondrial membranes; inhibitor 0.25 mM; read-out: average % (rate, % of no-inhibitor control)
[6] = bovine heart mitochondrial membranes; inhibitor 0.50 mM; read-out: average % (rate, % of no-inhibitor control)
[7] = log of concentration in mM; sample given as Bovine heart mitochondrial membranes; Prism variable slope fit, Bottom 0, Top 100
[8] = sample given as Bovine heart mitochondrial membranes; Prism log(inhibitor) vs. response variable slope fit (four parameters), Bottom 0, Top 100; read-out: IC50 (best fit value)
[9] = sample given as Bovine heart mitochondrial membranes; Prism variable slope fit, Bottom 0, Top 100

Chain of bovine heart mitochondrial membranes (complex I) (P42026 38-216): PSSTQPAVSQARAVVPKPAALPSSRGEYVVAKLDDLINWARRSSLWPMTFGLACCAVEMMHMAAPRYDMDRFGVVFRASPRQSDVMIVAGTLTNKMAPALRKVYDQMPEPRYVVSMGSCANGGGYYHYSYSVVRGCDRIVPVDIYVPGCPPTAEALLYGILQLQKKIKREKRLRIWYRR
Chain of bovine heart mitochondrial membranes (complex I) (P17694 34-463): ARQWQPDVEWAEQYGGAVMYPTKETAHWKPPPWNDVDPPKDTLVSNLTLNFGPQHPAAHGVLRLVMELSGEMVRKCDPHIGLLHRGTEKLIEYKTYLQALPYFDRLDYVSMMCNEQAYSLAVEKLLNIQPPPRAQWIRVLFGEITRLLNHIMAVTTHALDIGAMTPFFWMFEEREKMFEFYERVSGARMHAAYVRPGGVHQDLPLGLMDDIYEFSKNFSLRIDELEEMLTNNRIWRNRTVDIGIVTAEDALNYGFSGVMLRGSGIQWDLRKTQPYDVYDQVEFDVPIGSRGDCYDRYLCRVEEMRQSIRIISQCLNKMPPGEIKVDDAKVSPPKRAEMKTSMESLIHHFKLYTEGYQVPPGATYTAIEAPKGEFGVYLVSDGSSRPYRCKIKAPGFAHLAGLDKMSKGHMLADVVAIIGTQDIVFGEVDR
Chain of bovine heart mitochondrial membranes (complex I) (P03887 whole entry): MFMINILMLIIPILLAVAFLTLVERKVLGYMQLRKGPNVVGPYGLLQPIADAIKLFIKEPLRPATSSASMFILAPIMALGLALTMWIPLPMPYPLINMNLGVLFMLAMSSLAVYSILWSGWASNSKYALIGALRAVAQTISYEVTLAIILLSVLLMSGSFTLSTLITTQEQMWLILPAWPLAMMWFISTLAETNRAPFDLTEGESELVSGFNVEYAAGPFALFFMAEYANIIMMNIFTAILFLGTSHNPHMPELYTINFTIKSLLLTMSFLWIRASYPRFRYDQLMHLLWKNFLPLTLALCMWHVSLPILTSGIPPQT
Chain of bovine heart mitochondrial membranes (complex I) (P03898 whole entry): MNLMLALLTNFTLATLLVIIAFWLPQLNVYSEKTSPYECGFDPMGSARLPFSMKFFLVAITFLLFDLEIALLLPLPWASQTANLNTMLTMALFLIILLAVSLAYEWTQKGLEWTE

Structure (SMILES) | Complex II assay (succinate:O2 oxidoreduction), average [1] | rotenone sensitive OCR after ADP stimulation, % of control, average (rat liver mitochondria) | rotenone sensitive OCR after ADP stimulation, average (rat liver mitochondria) | rotenone sensitive OCR after ADP stimulation, % of control, individual replicates (rat liver mitochondria) | rotenone sensitive OCR after ADP stimulation, individual replicates (rat liver mitochondria) | rotenone sensitive OCR after 6 hours of biguanide exposure, % control, average (143B cells) | rotenone sensitive OCR after 6 hours of biguanide exposure, average (143B cells) | inhibition of rotenone-sensitive respiration (in words) (143B cells) | rotenone sensitive OCR after 6 hours of biguanide exposure, % control, average (HepG2 cells) | rotenone sensitive OCR after 6 hours of biguanide exposure, average (HepG2 cells) | inhibition of rotenone-sensitive respiration (in words) (HepG2 cells) | remaining activity at 50 µM [2, 3] | remaining activity at 120 µM [2, 4] | remaining activity at 250 µM [2, 5] | remaining activity at 500 µM [2, 6] | LogIC50 (best fit value) [2, 7] | IC50 [2, 8] | HillSlope (best fit value) [2, 9] | further results
NC(N)=NC(N)=NCCc1ccc(Cl)cc1 [compound 1, 2-[2-(4-chlorophenyl)ethyl]-1-(diaminomethylidene)guanidine] | 92.41 | 55.19 % of control | 15.13 | 67.97 % of control and 49.70 % of control and 53.49 % of control and 49.59 % of control | 18.64 and 13.63 and 14.67 and 13.60 | 3.06 % control | 3.59 | inhibit respiration | 4.45 % control | 4.59 | inhibit respiration | 77.5% | 66.8% | 57.4% | 44.1% | -0.4001 | 398 µM | -0.6555 | remaining activity at 25 µM ([2]; bovine heart mitochondrial membranes; inhibitor 0.025 mM; read-out: average % (rate, % of no-inhibitor control)): 91.4%; remaining activity at 1000 µM ([2]; bovine heart mitochondrial membranes; inhibitor 1.00 mM; read-out: average % (rate, % of no-inhibitor control)): 35.1%; remaining activity at 2000 µM ([2]; bovine heart mitochondrial membranes; inhibitor 2.00 mM; read-out: average % (rate, % of no-inhibitor control)): 28.9%
N=C(N)NC(N)=Nc1ccccc1 [compound 2, phenyl biguanide] | 92.05 | 93.19 % of control | 25.55 | 95.39 % of control and 93.60 % of control and 90.74 % of control and 93.05 % of control | 26.15 and 25.66 and 24.88 and 25.51 | 98.12 % control | 115.02 | do not | 91.28 % control | 94.14 | do not |  |  |  |  | -0.3757 |  | -0.7595 | IC50 ([2]; read-out: IC50 (best fit value); sample given as Bovine heart mitochondrial membranes; Prism log(inhibitor) vs. response variable slope fit (four parameters), Bottom 0, Top 100): 421 µM
NC(N)=NC(N)=NCc1ccccc1 [compound 3, 2-benzyl-1-(diaminomethylidene)guanidine] | 97.37 | 24.02 % of control | 6.59 | 20.74 % of control and 19.21 % of control and 31.06 % of control and 25.09 % of control | 5.69 and 5.27 and 8.51 and 6.88 | 3.11 % control | 3.64 | inhibit respiration | 1.26 % control | 1.29 | inhibit respiration | 88.7% | 76.2% | 69.2% | 55.6% | -0.01339 | 970 µM | -0.5756 | remaining activity at 1250 µM ([2]; bovine heart mitochondrial membranes; inhibitor 1.25 mM; read-out: average % (rate, % of no-inhibitor control)): 44.4%; remaining activity at 2500 µM ([2]; bovine heart mitochondrial membranes; inhibitor 2.50 mM; read-out: average % (rate, % of no-inhibitor control)): 37.2%; remaining activity at 5000 µM ([2]; bovine heart mitochondrial membranes; inhibitor 5.00 mM; read-out: average % (rate, % of no-inhibitor control)): 31.2%
[H]/N=C(/N)N/C(=N/[H])NCCc1ccccc1 [phenformin, reference compound] | 95.51 | 22.17 % of control | 6.08 | 23.43 % of control and 20.89 % of control and 22.08 % of control and 22.26 % of control | 6.42 and 5.73 and 6.05 and 6.10 | 9.47 % control | 11.10 |  | 1.73 % control | 1.79 |  |  |  |  |  |  |  |  | 
